Experimental data from US11992490B2, “Use of JAK1 inhibitors for the treatment of cutaneous lupus erythematosus and Lichen planus (LP)” (Incyte Corporation, priority 2019, dated 2024).
Each block holds one compound with its values, some of them ahead of it.

Assays:
[1] = target: human JAK1 (a.a. 837-1142) (Homo sapiens, UniProt P23458); assay: In vitro JAK kinase assay (HTRF), JAK1; type: biochemical; conditions: 1 mM ATP
[2] = target: human JAK2 (a.a. 828-1132) (Homo sapiens (Human), UniProt O60674); assay: In vitro JAK kinase assay (HTRF), JAK2; type: biochemical; conditions: JAK2/JAK1 IC50 ratio, 1 mM ATP
MRL-lpr mice = assay: Topical treatment of CLE-like lesions in lupus-prone MRL-lpr mice; type: in vivo, mouse
From the text: Topical treatment with JAK1-selective INCB054707 started with the MRL-lpr Mice at 11 weeks of age.

[3] = second independent experiment, dose-response
[4] = topical, 11 to 22 weeks, compared to placebo-treated mice

human JAK2 (a.a. 828-1132), sequence (O60674 828-1132): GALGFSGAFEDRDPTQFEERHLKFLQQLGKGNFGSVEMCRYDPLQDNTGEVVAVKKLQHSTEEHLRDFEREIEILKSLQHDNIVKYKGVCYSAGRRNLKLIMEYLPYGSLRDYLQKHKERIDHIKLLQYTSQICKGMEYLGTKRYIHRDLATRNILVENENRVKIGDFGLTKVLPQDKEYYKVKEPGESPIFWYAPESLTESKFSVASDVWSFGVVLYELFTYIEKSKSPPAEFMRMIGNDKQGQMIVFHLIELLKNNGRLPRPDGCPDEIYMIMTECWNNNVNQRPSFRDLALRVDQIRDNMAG

SMILES: N#CC[C@]1(n2cc(-c3ncnc4[nH]ccc34)cn2)C[C@H](N2CCN(C(=O)c3ccnc(C(F)(F)F)n3)CC2)C1 [Compound 10, [trans-1-[4-(7H-pyrrolo[2,3-d]pyrimidin-4-yl)-1H-pyrazol-1-yl]-3-(4-{[2-(trifluoromethyl)pyrimidin-4-yl]carbonyl}piperazin-1-yl)cyclobutyl]acetonitrile]
IC50 [1]: < 10 nM
JAK2/JAK1 [2]: >10

SMILES: N#CCC(C1CCN(c2cccc(Cl)n2)C1)n1cc(-c2ncnc3[nH]ccc23)cn1 (single isomer, unassigned) [Compound 6, 3-[1-(6-chloropyridin-2-yl)pyrrolidin-3-yl]-3-[4-(7H-pyrrolo[2,3-d]pyrimidin-4-yl)-1H-pyrazol-1-yl]propanenitrile]
IC50 [1]: < 10 nM
JAK2/JAK1 [2]: >10

SMILES: C[C@@H](O)c1nc2cnc3ccsc3c2n1[C@H]1CC[C@H](CC#N)OC1 [Compound 5, ((2R,5S)-5-{2-[(1R)-1-hydroxyethyl]-1H-imidazo[4,5-d]thieno[3,2-b]pyridin-1-yl}tetrahydro-2H-pyran-2-yl)acetonitrile]
IC50 [1]: < 100 nM
JAK2/JAK1 [2]: >10

SMILES: N#CCC1(n2cc(-c3ncnc4[nH]ccc34)cn2)CN(C2CCN(C(=O)Nc3ccc(F)cc3C(F)(F)F)CC2)C1 [Compound 2, 4-{3-(Cyanomethyl)-3-[4-(7H-pyrrolo[2,3-d]pyrimidin-4-yl)-1H-pyrazol-1-yl]azetidin-1-yl}-N-[4-fluoro-2-(trifluoromethyl)phenyl]piperidine-1-carboxamide]
IC50 [1]: < 10 nM
JAK2/JAK1 [2]: >10

SMILES: N#CCC1(n2cc(-c3ncnc4[nH]ccc34)cn2)CN(C2CCN(C(=O)c3ccnc(C(F)(F)F)n3)CC2)C1 [Compound 3, [3-[4-(7H-pyrrolo[2,3-d]pyrimidin-4-yl)-1H-pyrazol-1-yl]-1-(1-{[2-(trifluoromethyl)pyrimidin-4-yl]carbonyl}piperidin-4-yl)azetidin-3-yl]acetonitrile]
IC50 [1]: < 10 nM
JAK2/JAK1 [2]: >10

SMILES: N#CCC(C1CCN(c2nc3cccnc3o2)C1)n1cc(-c2ncnc3[nH]ccc23)cn1 (centres unmarked) [Compound 7, 3-(1-[1,3]oxazolo[5,4-b]pyridin-2-ylpyrrolidin-3-yl)-3-[4-(7H-pyrrolo[2,3-d]pyrimidin-4-yl)-1H-pyrazol-1-yl]propanenitrile]
IC50 [1]: < 10 nM
JAK2/JAK1 [2]: >10

SMILES: N#CCC(CN1CCN(C(=O)c2ccc(C#N)cc2F)CC1)n1cc(-c2ncnc3[nH]ccc23)cn1 (centres unmarked) [Compound 8, 4-[(4-{3-cyano-2-[4-(7H-pyrrolo[2,3-d]pyrimidin-4-yl)-1H-pyrazol-1-yl]propyl}piperazin-1-yl)carbonyl]-3-fluorobenzonitrile]
IC50 [1]: < 10 nM
JAK2/JAK1 [2]: >10

SMILES: N#CCC(CN1CCN(C(=O)c2ccc(C#N)cc2F)CC1)n1ccc(-c2ncnc3[nH]ccc23)c1 (centres unmarked) [Compound 9, 4-[(4-{3-cyano-2-[3-(7H-pyrrolo[2,3-d]pyrimidin-4-yl)-1H-pyrrol-1-yl]propyl}piperazin-1-yl)carbonyl]-3-fluorobenzonitrile]
IC50 [1]: < 10 nM
JAK2/JAK1 [2]: >10

SMILES: N#CC[C@]1(n2cc(-c3ncnc4[nH]ccc34)cn2)C[C@H](N2CCC(Oc3cc(CN4CC(O)C4)cc(C(F)(F)F)n3)CC2)C1 [Compound 11, {trans-3-(4-{[4-[(3-hydroxyazetidin-1-yl)methyl]-6-(trifluoromethyl)pyridin-2-yl]oxy}piperidin-1-yl)-1-[4-(7H-pyrrolo[2,3-d]pyrimidin-4-yl)-1H-pyrazol-1-yl]cyclobutyl}acetonitrile]
IC50 [1]: < 10 nM
JAK2/JAK1 [2]: >10

SMILES: Cc1n[nH]c(C)c1-c1cnn(C2(CC#N)CN(c3cc(F)c(C(=O)N[C@@H](C)C(F)(F)F)cc3F)C2)c1 [INCB054707]
cumulative skin lesion disease burden (MRL-lpr mice; [3]): significant dose-dependent effects
daily cutaneous skin lesion score (MRL-lpr mice; [3]): significant dose-dependent effects
incidence of mice with skin lesions (MRL-lpr mice; [3]): significant dose-dependent effects
cumulative skin lesion disease burden (area under the curve) (MRL-lpr mice; topical, 11 to 22 weeks): significantly reduced
cutaneous skin lesion score (MRL-lpr mice; [4]): significantly reduced
incidence of mice with skin lesions (MRL-lpr mice; [4]): significantly reduced
inflammatory markers, RNAseq of skin biopsy (MRL-lpr mice; topical, dose-dependent): downregulation of multiple inflammatory markers
lesional skin regarding erythema, induration, scaling and size (MRL-lpr mice; topical, from 11 weeks to 22 weeks of age): continuously improved

The remaining lines, values ahead:

IC50 [1]: < 10 nM
JAK2/JAK1 [2]: >10
SMILES: N#CCC1(n2cc(-c3ncnc4[nH]ccc34)cn2)CN([C@H]2CC[C@@H](Oc3cc(CN4CC[C@@H](O)C4)cc(C(F)(F)F)n3)CC2)C1 [Compound 21, {1-(cis-4-{[4-{[(3R)-3-hydroxypyrrolidin-1-yl]methyl}-6-(trifluoromethyl)pyridin-2-yl]oxy}cyclohexyl)-3-[4-(7H-pyrrolo[2,3-d]pyrimidin-4-yl)-1H-pyrazol-1-yl]azetidin-3-yl}acetonitrile]

IC50 [1]: < 10 nM
JAK2/JAK1 [2]: >10
SMILES: C[C@@H](O)CNCc1cc(OC2CCN([C@H]3C[C@](CC#N)(n4cc(-c5ncnc6[nH]ccc56)cn4)C3)CC2)nc(C(F)(F)F)c1 [Compound 24, {trans-3-(4-{[4-({[(2R)-2-hydroxypropyl]amino}methyl)-6-(trifluoromethyl)pyridin-2-yl]oxy}piperidin-1-yl)-1-[4-(7H-pyrrolo[2,3-d]pyrimidin-4-yl)-1H-pyrazol-1-yl]cyclobutyl}acetonitrile]

IC50 [1]: < 10 nM
JAK2/JAK1 [2]: >10
SMILES: C[C@@H](CO)NCc1cc(OC2CCN([C@H]3C[C@](CC#N)(n4cc(-c5ncnc6[nH]ccc56)cn4)C3)CC2)nc(C(F)(F)F)c1 [Compound 23, {trans-3-(4-{[4-({[(1S)-2-hydroxy-1-methylethyl]amino}methyl)-6-(trifluoromethyl)pyridin-2-yl]oxy}piperidin-1-yl)-1-[4-(7H-pyrrolo[2,3-d]pyrimidin-4-yl)-1H-pyrazol-1-yl]cyclobutyl}acetonitrile]

IC50 [1]: < 10 nM
JAK2/JAK1 [2]: >10
SMILES: N#CCC1(n2cc(-c3ncnc4[nH]ccc34)cn2)CN([C@H]2CC[C@@H](Oc3cc(CCO)nc(C(F)(F)F)n3)CC2)C1 [Compound 18, {1-(cis-4-{[6-(2-hydroxyethyl)-2-(trifluoromethyl)pyrimidin-4-yl]oxy}cyclohexyl)-3-[4-(7H-pyrrolo[2,3-d]pyrimidin-4-yl)-1H-pyrazol-1-yl]azetidin-3-yl}acetonitrile]

IC50 [1]: < 10 nM
JAK2/JAK1 [2]: >10
SMILES: C[C@H](NC(=O)c1cc(F)c(N2CC(CC#N)(n3cc(-c4ncnc5[nH]ccc45)cn3)C2)cc1F)C(F)(F)F [Compound 16, 4-{3-(cyanomethyl)-3-[4-(7H-pyrrolo[2,3-d]pyrimidin-4-yl)-1H-pyrazol-1-yl]azetidin-1-yl}-2,5-difluoro-N-[(1S)-2,2,2-trifluoro-1-methylethyl]benzamide]

IC50 [1]: < 10 nM
JAK2/JAK1 [2]: >10
SMILES: N#CCC1(n2cc(-c3ncnc4[nH]ccc34)cn2)CN([C@H]2CC[C@@H](Oc3cc(CN4CC[C@H](O)C4)cc(C(F)(F)F)n3)CC2)C1 [Compound 22, {1-(cis-4-{[4-{[(3S)-3-hydroxypyrrolidin-1-yl]methyl}-6-(trifluoromethyl)pyridin-2-yl]oxy}cyclohexyl)-3-[4-(7H-pyrrolo[2,3-d]pyrimidin-4-yl)-1H-pyrazol-1-yl]azetidin-3-yl}acetonitrile]

IC50 [1]: < 10 nM
JAK2/JAK1 [2]: >10
SMILES: CCNCc1cc(O[C@H]2CC[C@@H](N3CC(CC#N)(n4cc(-c5ncnc6[nH]ccc56)cn4)C3)CC2)nc(C(F)(F)F)c1 [Compound 19, {1-(cis-4-{[4-[(ethylamino)methyl]-6-(trifluoromethyl)pyridin-2-yl]oxy}cyclohexyl)-3-[4-(7H-pyrrolo[2,3-d]pyrimidin-4-yl)-1H-pyrazol-1-yl]azetidin-3-yl}acetonitrile]

IC50 [1]: < 10 nM
JAK2/JAK1 [2]: >10
SMILES: N#CC[C@]1(n2cc(-c3ncnc4[nH]ccc34)cn2)C[C@H](N2CCC(Oc3cc(CCO)cc(C(F)(F)F)n3)CC2)C1 [Compound 26, {trans-3-(4-{[4-(2-hydroxyethyl)-6-(trifluoromethyl)pyridin-2-yl]oxy}piperidin-1-yl)-1-[4-(7H-pyrrolo[2,3-d]pyrimidin-4-yl)-1H-pyrazol-1-yl]cyclobutyl}acetonitrile]

IC50 [1]: < 10 nM
JAK2/JAK1 [2]: >10
SMILES: CC(C)(O)c1cc(O[C@H]2CC[C@@H](N3CC(CC#N)(n4cc(-c5ncnc6[nH]ccc56)cn4)C3)CC2)nc(C(F)(F)F)c1 [Compound 20, {1-(cis-4-{[4-(1-hydroxy-1-methylethyl)-6-(trifluoromethyl)pyridin-2-yl]oxy}cyclohexyl)-3-[4-(7H-pyrrolo[2,3-d]pyrimidin-4-yl)-1H-pyrazol-1-yl]azetidin-3-yl}acetonitrile]

IC50 [1]: < 10 nM
JAK2/JAK1 [2]: >10
SMILES: N#CC[C@]1(n2cc(-c3ncnc4[nH]ccc34)cn2)C[C@H](N2CCC(Oc3cc(CN4CCC[C@H]4CO)cc(C(F)(F)F)n3)CC2)C1 [Compound 12, {trans-3-(4-{[4-{[(2S)-2-(hydroxymethyl)pyrrolidin-1-yl]methyl}-6-(trifluoromethyl)pyridin-2-yl]oxy}piperidin-1-yl)-1-[4-(7H-pyrrolo[2,3-d]pyrimidin-4-yl)-1H-pyrazol-1-yl]cyclobutyl}acetonitrile]

IC50 [1]: < 10 nM
JAK2/JAK1 [2]: >10
SMILES: N#CC[C@]1(n2cc(-c3ncnc4[nH]ccc34)cn2)C[C@H](N2CCC(Oc3cc(CN4CCC[C@@H]4CO)cc(C(F)(F)F)n3)CC2)C1 [Compound 13, {trans-3-(4-{[4-{[(2R)-2-(hydroxymethyl)pyrrolidin-1-yl]methyl}-6-(trifluoromethyl)pyridin-2-yl]oxy}piperidin-1-yl)-1-[4-(7H-pyrrolo[2,3-d]pyrimidin-4-yl)-1H-pyrazol-1-yl]cyclobutyl}acetonitrile]

IC50 [1]: < 10 nM
JAK2/JAK1 [2]: >10
SMILES: C[C@H](O)CNCc1cc(OC2CCN([C@H]3C[C@](CC#N)(n4cc(-c5ncnc6[nH]ccc56)cn4)C3)CC2)nc(C(F)(F)F)c1 [Compound 25, {trans-3-(4-{[4-({[(2S)-2-hydroxypropyl]amino}methyl)-6-(trifluoromethyl)pyridin-2-yl]oxy}piperidin-1-yl)-1-[4-(7H-pyrrolo[2,3-d]pyrimidin-4-yl)-1H-pyrazol-1-yl]cyclobutyl}acetonitrile]
